Molecular target: T1, hCTPS1 enzyme (Homo sapiens, UniProt P17812)
T1 sequence (P17812 1-591): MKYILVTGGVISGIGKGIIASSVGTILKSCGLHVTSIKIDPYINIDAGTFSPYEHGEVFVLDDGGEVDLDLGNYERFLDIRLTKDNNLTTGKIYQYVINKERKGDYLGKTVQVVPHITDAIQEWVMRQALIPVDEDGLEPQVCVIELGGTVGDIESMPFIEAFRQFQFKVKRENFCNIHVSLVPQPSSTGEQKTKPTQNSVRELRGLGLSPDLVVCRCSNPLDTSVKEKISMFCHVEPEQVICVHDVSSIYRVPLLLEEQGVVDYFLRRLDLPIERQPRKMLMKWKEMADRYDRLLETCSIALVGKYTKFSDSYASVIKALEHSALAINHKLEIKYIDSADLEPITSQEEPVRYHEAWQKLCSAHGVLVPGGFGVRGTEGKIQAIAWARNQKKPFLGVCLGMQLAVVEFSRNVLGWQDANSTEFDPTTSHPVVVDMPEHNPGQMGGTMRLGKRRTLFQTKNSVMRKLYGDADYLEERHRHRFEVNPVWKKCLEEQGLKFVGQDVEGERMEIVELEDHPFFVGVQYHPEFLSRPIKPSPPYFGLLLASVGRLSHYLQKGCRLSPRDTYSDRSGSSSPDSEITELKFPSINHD
Assay: Inhibition of CTPS1 enzyme activity (ADP-Glo method)
Assay type: biochemical
Details: hCTPS1, 90 min reaction at 25° C.
Protocol: The enzyme activity of CTPS1 was tested using the ADP-Glo method. Compounds were serially diluted in DMSO with 3-fold gradients across ten concentrations. Transfer 0.1 μL of diluted compound to a 384-well plate, centrifuge at 1000 rpm for 1 min. Add 2.5 μL of hCTPS1 enzyme working solution, centrifuge at 1000 rpm for 1 min, and incubate at 25° C. for 10 min. Add 2.5 μL of ATP & UTP solution and incubate at 25° C. for 10 min. Add 5 μL of substrate solution to initiate the reaction and incubate at 25° C. for 90 min. Add 10 μL of ADP-Glo solution to the 384-well plate, centrifuge at 1000 rpm for 1 min, incubate at 25° C. for 40 min, add 20 μL of detection solution, centrifuge at 1000 rpm for 1 min, and incubate at 25° C. for 60 min. […] were read using a BMG microplate reader. Inhibition rate (%) was calculated as follows: Inhibition rate (%)=[(DMSO control well signal−Compound well signal)/(DMSO control well signal−Blank control well signal)]×100%. IC50 values for compounds were analyzed by nonlinear regression in XLFit 5.5.0 software using the formula: Y=Bottom+(Top−Bottom)/(1+10^((LogIC50−X)*HillSlope)) where Y is the inhibition rate and X is the log value of compound concentration.

| Compound | IC50 |
| --- | --- |
| CCOc1cncc(-c2ccc(NC(=O)C3(c4ccnc(NS(=O)(=O)C5CC5)n4)CCC(=CCOC)CC3)nc2)n1 (single isomer, unassigned) [Compound 18] | < 50 nM |
| CCOc1cncc(-c2ccc(NC(=O)C3(c4ccnc(NS(=O)(=O)C5CC5)n4)CCC(=C(C)C)CC3)nc2)n1 (stereo not shown) [Compound 2] | < 50 nM |
| CCOc1cncc(-c2ccc(NC(=O)C3(c4ccnc(NS(=O)(=O)C5CC5)n4)CCC(=CC#N)CC3)nc2)n1 (stereo not shown) [Compound 8] | < 50 nM |
| CCOc1cncc(-c2ccc(NC(=O)C3(c4ccnc(NS(=O)(=O)C5CC5)n4)CCC(=CCN4CCOCC4)CC3)nc2)n1 (stereo not shown) [Compound 11] | < 25 nM |
| CCOc1cncc(-c2ccc(C(=O)NC3(c4ccnc(NS(=O)(=O)C5CC5)n4)CCC(=C(F)F)CC3)nc2)n1 (stereo not shown) [Compound 70] | < 200 nM |

Tested on: Jurkat cells
Assay: Inhibition of Jurkat cell proliferation (CellTiter-Glo, 72 hours)
Assay type: cell-based
Details: Homo sapiens; Jurkat cells, 72 hours, CellTiter-Glo; read-out: Jurkat (IC50)
Protocol: Select Jurkat cells in good growth condition and digest them with trypsin. Add fresh culture medium, mix thoroughly, and centrifuge at 1000 rpm for 5 minutes. Seed the cells into a 96-well plate at a density of 10,000 cells per well, and incubate overnight in a 37° C. incubator. On the following day, take out of the culture plate and treat the cells with compounds prepared in a five-fold serial dilution. Return the plate to the 37° C. incubator and continue incubation for 72 hours.
After incubation, bring out the cell culture plate and equilibrate it to room temperature. Add 100 μL of CellTiter-Glo reagent to each well, shake in the dark for 2 minutes, and incubate for 10 minutes. Measure the luminescence using an Enspire plate reader. Calculate the inhibition rate using the following formula: Inhibition rate (%)=(1−(RLU_compound−RLU_blank)/(RLU_DMSO−RLU_blank))×100%. Plot the dose-response curve and calculate the IC50 value using XLFit.

| Compound | IC50 |
| --- | --- |
| CCOc1cncc(-c2ccc(NC(=O)C3(c4ccnc(NS(=O)(=O)C5CC5)n4)CCC(=CCOC)CC3)nc2)n1 (single isomer, unassigned) [Compound 18] | < 50 nM |
| CCOc1cncc(-c2ccc(NC(=O)C3(c4ccnc(NS(=O)(=O)C5CC5)n4)CCC(=C(C)C)CC3)nc2)n1 (stereo not shown) [Compound 2] | < 50 nM |
| CCOc1cncc(-c2ccc(NC(=O)C3(c4ccnc(NS(=O)(=O)C5CC5)n4)CCC(=CCO)CC3)nc2)n1 (stereo not shown) [Compound 5] | < 15 nM |
| CCOc1cncc(-c2ccc(NC(=O)C3(c4ccnc(N(C)S(=O)(=O)C5CC5)n4)CCC(=CCO)CC3)nc2)n1 (stereo not shown) [Compound 6] | < 100 nM |
| O=C(Nc1ccc(-c2cncc(OC3CC(=C(F)F)C3)n2)cn1)C1(c2ccnc(NS(=O)(=O)C3CC3)n2)CCOCC1 (stereo not shown) [Compound 7] | < 750 nM |
| CCOc1cncc(-c2ccc(NC(=O)C3(c4ccnc(NS(=O)(=O)C5CC5)n4)CCC(=CC#N)CC3)nc2)n1 (stereo not shown) [Compound 8] | < 15 nM |
| C=C1CCC(C(=O)Nc2ccc(-c3cncc(OCC)n3)cn2)(c2ccnc(NS(=O)(=O)C3CC3)n2)CC1 [Compound 9] | < 50 nM |
| CCOc1cncc(-c2ccc(NC(=O)C3(c4ccnc(NS(=O)(=O)C5CC5)n4)CCC(=CCN4CCOCC4)CC3)nc2)n1 (stereo not shown) [Compound 11] | < 15 nM |
| CCOc1cncc(-c2ccc(NC(=O)C3(c4ccnc(NS(=O)(=O)C5CC5)n4)CCC(=CCOC)CC3)nc2)n1 (stereo not shown) [Compound 17] | < 200 nM |
| CCOc1cncc(-c2ccc(NC(=O)C3(c4ccnc(NS(=O)(=O)C5CC5)n4)CC(=CF)C3)nc2)n1 (stereo not shown) [Compound 20] | < 200 nM |
| CCOc1cncc(-c2ccc(NC(=O)C3(c4ccnc(NS(=O)(=O)C5CC5)n4)CCC(=CCc4ccccc4)CC3)nc2)n1 (stereo not shown) [Compound 21] | < 1000 nM |
| CCOc1cncc(-c2ccc(NC(=O)C3(c4ccnc(NS(=O)(=O)C5CC5)n4)CCN(c4cccnc4)CC3)nc2)n1 [Compound 25] | < 30 nM |
| CCOc1cncc(-c2ccc(NC(=O)C(=C3CCOCC3)c3ccnc(NS(=O)(=O)C4CC4)n3)nc2)n1 [Compound 33] | < 1000 nM |
| CCOc1cncc(-c2ccc(NC(=O)C3(c4ccnc(NS(=O)(=O)C5CC5)n4)CCN(c4ccncc4)CC3)nc2)n1 [Compound 35] | < 200 nM |
| CCOc1cncc(-c2ccc(NC(=O)C3(c4ccnc(NS(=O)(=O)C5CC5)n4)CCC(=Cc4ccccn4)CC3)nc2)n1 (stereo not shown) [Compound 38] | < 30 nM |
| CCOc1cncc(-c2ccc(NC(=O)C3(c4ccnc(NS(=O)(=O)C5CC5)n4)CCC(=CC(N)=O)CC3)nc2)n1 (stereo not shown) [Compound 40] | < 200 nM |
| CCOc1cncc(-c2ccc(NC(=O)C3(c4ccnc(NS(=O)(=O)C5CC5)n4)CCC(=CCN)CC3)nc2)n1 (stereo not shown) [Compound 41] | < 100 nM |

| Compound | IC50 |
| --- | --- |
| CCOc1cncc(-c2ccc(NC(=O)C3(c4ccnc(NS(=O)(=O)C5CC5)n4)CCC(=Cc4ccoc4)CC3)nc2)n1 (stereo not shown) [Compound 42] | < 50 nM |
| CCOC(=O)C(F)=C1CCC(C(=O)Nc2ccc(-c3cncc(OCC)n3)cn2)(c2ccnc(NS(=O)(=O)C3CC3)n2)CC1 (stereo not shown) [Compound 43] | < 50 nM |
| CCOc1cncc(-c2ccc(NC(=O)C3(c4ccnc(NS(=O)(=O)C5CC5)n4)CCC(=C(F)C#N)CC3)nc2)n1 (stereo not shown) [Compound 49] | < 50 nM |
| CCOc1cncc(-c2ccc(NC(=O)C3(c4ccnc(NS(=O)(=O)C5CC5)n4)CCC(=C(C)C4COC4)CC3)nc2)n1 (stereo not shown) [Compound 51] | < 30 nM |
| CCOc1cncc(-c2ccc(NC(=O)C3(c4ccnc(NS(=O)(=O)C5CC5)n4)CCC(=Cc4ccsc4)CC3)nc2)n1 (stereo not shown) [Compound 53] | < 100 nM |
| CCOc1cncc(-c2ccc(NC(=O)C3(c4ccnc(NS(=O)(=O)C5CC5)n4)CCC(=Cc4cncnc4)CC3)nc2)n1 (stereo not shown) [Compound 56] | < 50 nM |
| CCOc1cncc(-c2ccc(NC(=O)C3(c4ccnc(NS(=O)(=O)C5CC5)n4)CCC(=CC(C)(C)O)CC3)nc2)n1 (stereo not shown) [Compound 57] | < 50 nM |
| CCOc1cncc(-c2ccc(NC(=O)C3(c4ccnc(NS(=O)(=O)C5CC5)n4)CCC(=CC4CC(O)C4)CC3)nc2)n1 (stereo not shown) [Compound 59] | < 15 nM |
| CCOc1cncc(-c2ccc(NC(=O)C3(c4ccnc(NS(=O)(=O)C5CC5)n4)CCC(=CC(C)=O)CC3)nc2)n1 (stereo not shown) [Compound 60] | < 30 nM |
| CCOc1cncc(-c2ccc(NC(=O)C3(c4ccnc(NS(=O)(=O)C5CC5)n4)CCC(=C(F)C(C)=O)CC3)nc2)n1 (stereo not shown) [Compound 61] | < 50 nM |
| CCOc1cncc(-c2ccc(NC(=O)C3(c4ccnc(NS(=O)(=O)C5CC5)n4)CCC4(CC3)CC(=C(F)F)C4)nc2)n1 (stereo not shown) [Compound 64] | < 50 nM |
| CCOc1cncc(-c2ccc(NC(=O)C3(c4ccnc(NS(=O)(=O)C5CC5)n4)CCC(=C(F)F)CC3)c(F)c2)n1 (stereo not shown) [Compound 65] | < 50 nM |
| CCOc1cncc(-c2ccc(NC(=O)C3(c4nccc(NS(=O)(=O)C5CC5)n4)CCC(=C(F)F)CC3)nc2)n1 (stereo not shown) [Compound 66] | < 50 nM |
| CCOc1cncc(-c2cnc(NC(=O)C3(c4ccnc(NS(=O)(=O)C5CC5)n4)CCC(=C(F)F)CC3)c(F)c2)n1 (stereo not shown) [Compound 71] | < 200 nM |
| CCOc1cncc(-c2cnc(C(=O)NC3(c4ccnc(NS(=O)(=O)C5CC5)n4)CCC(=C(F)F)CC3)s2)n1 (stereo not shown) [Compound 72] | < 200 nM |
| CCOc1cncc(-c2ccc(NC(=O)C3(c4csc(NS(=O)(=O)C5CC5)n4)CCC(=C(F)F)CC3)nc2)n1 (stereo not shown) [Compound 73] | < 30 nM |

Tested on: not listed separately
Assay: in vivo
Design: species or system SD rats
Details: male, SD, rat, po, 2 mg/kg
Protocol: Instrumentation: SCIEX Triple Quad 6500+ triple quadrupole liquid chromatography-mass spectrometry system (LC-MS/MS), operating software is Analyst 1.7.2 (Applied Biosystems, USA); ExionLC liquid chromatography system; Microsoft Excel was used for data calculation and processing. Pharmacokinetic parameters were calculated using the statistical moment method with WinNonlin 8.2 software. Key kinetic parameters included Tmax, T1/2, Cmax, AUC0-24 h etc. Column: Synergi 4 μm Fusion-RP 80 Å Luna C18 2 mm*50 mm, 4 μm; Column temperature: 40° C.; Mobile phase A: Water (0.1% formic acid); Mobile phase B: Acetonitrile; Flow rate: 0.8 mL/min; Gradient elution is adopted, the elution gradient is 0.10 min: 15% B; 1.60 min: 95% B; 1.90 min: 95% B; 1.91 min: 15% B; 2.20 min: 15% B. Injection volume: 1 μL.
Animals: 3 male SD rats with a weight range of 200-220 g were purchased and kept in the laboratory of the Experimental Animal Center for 3 days and then used. They were fasted for 12 hours predose and 4 hours after dosing. Drinking water was free during the test. After the rats were gavage, blood samples were taken according to the established time point.
Solvent: 0.4% ethanol+0.4% Tween80+99.2% (0.5% methylcellulose M450). Preparation of the solution for intragastric administration: Compounds were accurately weighed and added to the solvent. The mixture was then subjected to vortex mixing and sonication until a homogeneous suspension was achieved, thereby preparing medicinal solutions of the desired concentrations.
Compound samples: Typically, multiple structurally analogous compounds (with molecular weights differing by more than 2 units) were accurately weighed and administered together (cassette PK). This approach allows for the simultaneous screening of multiple compounds and comparison of their oral absorption rates. Single compound administration was also employed to study the pharmacokinetics of drug samples in rats.
After intragastric administration, blood was collected from the jugular vein at 0.25, 0.5, 1, 2, 4, 8, 10 and 24 hours. Transfer 20 μL of plasma sample (for blank samples and internal standard blank samples, add 20 μL of blank plasma) to a 1.5 mL centrifuge tube, add 200 μL of internal standard solution (50% methanol in acetonitrile (concentration 100 ng/mL)) (for Double blank samples, add 200 μL of 50% methanol in acetonitrile solution). Vortex the samples for 5 minutes, then centrifuge at 14000 rpm and 4° C. for 5 minutes. Transfer 80 μL and add to 80 μL of water, mix uniformly, and submit for LC-MS/MS analysis.
The compounds were accurately weighed to prepare different concentrations, and quantitative analysis on mass spectrometry was performed to establish a standard curve, and then the concentration of the above-mentioned compound in the plasma was tested to obtain its concentration at different time points. All measurement data were collected and processed by relevant software, and the statistical moment method was used to calculate the pharmacokinetic parameters (mainly including kinetic parameters Tmax, T1/2, Cmax, AUC0-24 h etc).

| Compound | AUC(0-t) | Cmax | Tmax | half-life |
| --- | --- | --- | --- | --- |
| CCOc1cncc(-c2ccc(NC(=O)C3(c4ccnc(NS(=O)(=O)C5CC5)n4)CCC(=C(C)C4COC4)CC3)nc2)n1 (stereo not shown) [Compound 51] | 62.7 ng·h/mL | 14.5 ng/mL | 4 h | 1.56 h |

Same assay, conditions: male, SD, rat, po, 3 mg/kg

| Compound | AUC(0-t) | Cmax | Tmax | half-life |
| --- | --- | --- | --- | --- |
| CCOc1cncc(-c2ccc(NC(=O)C3(c4ccnc(NS(=O)(=O)C5CC5)n4)CCC(=CCO)CC3)nc2)n1 (stereo not shown) [Compound 5] | 417 ng·h/mL | 359 ng/mL | 0.25 h | 1.73 h |

— US20260226026A1, “COMPOUND AS CTPS1 INHIBITOR” (Hangzhou Innogate Pharma Co., Ltd., priority 2023, published 2026)
